Assay results reported in patent publication US8450479B2, “3-substituted-4-oxo-3,4-dihydro-imidazo[5,1-d][1,2,3,5-tetrazine-8-carboxylic acid amides and their use” (Pharminox Limited, priority 2007, dated 2013).
Several values for one entry are separate records, joined by “and”; a condition that tells them apart may be missing. Equal entries are not always repeated. Where two headings read alike, the source gives them in different places.

Columns and labels:
Type in all cases: cell-based
[1] = test system: Breast MCF-7 (MMR proficient); test: MTT assay for 7-day toxicity assay; settings: Homo sapiens, MCF7, 168 h; Breast MCF-7 (MMR proficient); 7-day MTT; single determinations; read-out: GI50
Method: (§1) The cell culture techniques were carried out in a Class II microbiological safety cabinet which was swabbed with 70% IMS in distilled water before each use. Glioma cells were routinely cultured in Costar tissue culture flasks in RPMI 1640 liquid medium (containing 0.3 g/L L-glutamine and 2 g/L sodium bicarbonate) supplemented with 10% heat inactivated FBS (55-59° C.) for 1 hour to denature complement proteins which would otherwise evoke a cellular immune response resulting in cell lysis, 1% non-essential amino acids, 50 μg/mL gentamicin and 400 μg/mL G418 (vector selected reagent). Colorectal and melanoma cells were maintained in RPMI 1640 supplemented with 10% FBS. MRC-5 cells were cultured in EMEM. Cells were grown in a humidified incubator containing 5% CO2 at 37° C. Cells were sub-cultured when growth exceeded approximately 80% confluence, normally twice weekly. The medium was aspirated from the flask and approximately 0.8 mL trypsin-EDTA 1× solution added. The cells were re-incubated at 37° C. until they visibly detached from the flask. The cell suspension was then re-suspended in 5 mL medium and 0.5-1 mL of the cell suspension was transferred to a new flask (25 cm^2) with 7 mL culture medium. The cells were further incubated at 37° C. incubator. Cells were disposed after passage nearly 30 times in order to minimize phenotypic drift. New batches of cells were taken from liquid nitrogen storage by thawing rapidly (37° C. water bath) and re-suspension in a 25 cm^2 flask with 10 mL of culture medium. Two passages were allowed to resume normal growth. For long-term maintenance, viable cells at 60-80% confluence were detached by minimum amount of trypsin/EDTA and re-suspended in sterile filtered freezing medium (95% FBS, 5% DMSO), transferred to sterile cryogenic vials, and frozen overnight at −20° C. followed by −80° C. for 1-2 days and stored in liquid nitrogen for long term storage.
(§2) Most test compounds, including temozolomide, were prepared as stock solution (100 mM) in DMSO and stored at −20° C. for not more than 6 months.
(§3) This assay was first described in Mosmann, T., 1983, “Rapid colorimetric assay for cellular growth and survival: Application to proliferation and cytotoxicity assays”, Journal of Immunological Methods, Vol. 65, Nos. 1-2, pp. 55-63.
(§4) Glioma cell lines, SNB19 and U373, both MGMT transfected (i.e., SNB19M and U373M) and vector controls (i.e., SNB19V and U373V); colorectal carcinoma cell lines, HCT116, HT29, and DLD1; melanoma cell line, SKMEL-28; breast cell line, MCF-7; and normal human fetal lung fibroblast cell line, MRC-5; were harvested at 60-80% confluence—during the logarithmic phase of growth.
(§5) Following harvesting, cells in suspension were gently syringed through a 23 gauge needle to obtain a near-single cell suspension. The desired cell seeding densities were used and added into 96-well plates in 180 μL culture medium if only one test compound was to be added, or 160 μL if two test compounds were to be added in combination, which were allowed to attach at 37° C. (5% CO2) overnight. For the 7 day assay, the cell seeding density for different cell lines was as follows: SNB19V, SNB19M: 650 cells/well; U373V, U373M: 650 cells/well; SNB19VR, U373VR: 650 cells/well; HCT116, DLD-1, SKMEL-28, MRC-5, MCF-7: 400 cells/well.
(§6) The two peripheral lanes were used as blank wells (cell free) and filled with 200 μL of medium in order to minimise medium evaporation from the plate. A separate time zero (T0) plate was set up alongside other plates. Serial dilutions in tissue culture medium of a 100 mM stock of test compound in DMSO were prepared immediately before each assay to ten times the final concentrations required, and then 20 μL was added to each well (200 μL total media per well) to achieve final concentrations of 0.5 μM, 1 μM, 5 μM, 10 μM, 50 μM, 100 μM, 500 μM, and 1000 μM. A minimum of four wells received the same test compound concentration. […]

[2] = test system: Colon HCT116 (MMR mutated); test: MTT assay for 7-day toxicity assay; settings: Colon HCT116 (MMR mutated), 7-day MTT, single determinations, read-out: GI50
Method: as §1, §2, §3, §4, §5, §6

[3] = test system: Melanoma SKMEL-28 (MMR proficient); test: MTT assay for 7-day toxicity assay; settings: Homo sapiens, SK-MEL-28, 168 h, Melanoma SKMEL-28 (MMR proficient); 7-day MTT; single determinations; read-out: GI50
Method: as §1, §2, §3, §4, §5, §6

[4] = test system: Colon HT29 (MMR proficient); test: MTT assay for 7-day toxicity assay; settings: Homo sapiens, HT-29, 168 h, Colon HT29 (MMR proficient); 7-day MTT; single determinations; read-out: GI50
Method: as §1, §2, §3, §4, §5, §6

[5] = test system: Glioma U373VR (MGMT low) (TMZ resistant); test: MTT assay for 7-day toxicity assay; settings: 168 h, Glioma U373VR (MGMT low, TMZ resistant); 7-day MTT; single determinations; read-out: GI50
Method: as §1, §2, §3, §4, §5, §6

[6] = test system: Glioma SNB19VR (MGMT−) (TMZ resistant); test: MTT assay for 7-day toxicity assay; settings: 168 h, Glioma SNB19VR (MGMT−, TMZ resistant); 7-day MTT; single determinations; read-out: GI50
Method: as §1, §2, §3, §4, §5, §6

[7] = test system: Normal Human Fetal Lung Fibroblast MRC-5; test: MTT assay for 7-day toxicity assay; settings: Homo sapiens, MRC5, 168 h, Normal Human Fetal Lung Fibroblast MRC-5; 7-day MTT; single determinations; read-out: GI50
Method: as §1, §2, §3, §4, §5, §6

[8] = test system: Glioma U373V (MGMT low); test: MTT assay for 7-day toxicity assay; settings: for GI50: Glioma U373V (MGMT low), read-out: GI50
Method in brief: (§7)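 MGMT-transfected or vector-control glioma cells were seeded at 650 cells/well, attached overnight, and exposed for 7 days at 37 °C to compound at final 0.5–1000 μM. Viability was read by MTT (0.4 mg/mL, 4 h) formazan absorbance, with a day-0 plate included.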

[9] = test system: Glioma U373M (MGMT+); test: MTT assay for 7-day toxicity assay; settings: Glioma U373M (MGMT+), read-out: GI50
Method in brief: as §7

[10] = test system: Glioma SNB19V (MGMT−); test: MTT assay for 7-day toxicity assay; settings: Glioma SNB19V (MGMT−), read-out: GI50
Method in brief: as §7

[11] = test system: Glioma SNB19M (MGMT+); test: MTT assay for 7-day toxicity assay; settings: Glioma SNB19M (MGMT+), read-out: GI50
Method in brief: as §7

[12] = test system: MGMT+ lines SNB 19M and U373M; test: MTT assay, MGMT+ glioma lines
Description: as §3, §4, §5
The two peripheral lanes were used as blank wells (cell free) and filled with 200 μL of medium in order to minimise medium evaporation from the plate. A separate time zero (T0) plate was set up alongside other plates. […]
After incubation at 37° C., 5% CO2 for 7 days (or immediately for the day 0 plate), cell viability was quantified using the MTT assay. […]
The intensity of absorbance is directly proportional to cell viability. A linear relationship exists between cell number and the amount of formazan and so the mean absorbance determined for each well of the same concentration can be used as a quantitative measure of viable cells compared to the controls. […]

[13] = test system: glioma MGMT− and MGMT+ cell lines; test: MTT assay, glioma lines as a whole; settings: glioma MGMT− and MGMT+ cell lines
Description: as §3, §4, §5
(§8) The two peripheral lanes were used as blank wells (cell free) and filled with 200 μL of medium in order to minimise medium evaporation from the plate. A separate time zero (T0) plate was set up alongside other plates. Serial dilutions in tissue culture medium of a 100 mM stock of test compound in DMSO were prepared immediately before each assay to ten times the final concentrations required, and then 20 μL was added to each well (200 μL total media per well) to achieve final concentrations of 0.5 μM, 1 μM, 5 μM, 10 μM, 50 μM, 100 μM, 500 μM, and 1000 μM. A minimum of four wells received the same test compound concentration. To control wells, including those in the T0 plate, 20 μL of medium was added. Previous assays had been carried out to verify that cell viability was not affected by the amount of DMSO added into the test compound-treated wells. A separate plate treated in the same way, but free of test compound, was used as a measure of cell viability at the time of drug addition (day 0).
(§9) After incubation at 37° C., 5% CO2 for 7 days (or immediately for the day 0 plate), cell viability was quantified using the MTT assay. 50 μL of sterile filtered MIT (3-(4,5-dimethylthiazol-2-yl)-2,5-diphenyltetrazolium bromide) (2 mg/mL in phosphate buffered saline) were added to each well (final concentration 0.4 mg/mL) and the plates were re-incubated for 4 hours to allow metabolic conversion of MTT by dehydrogenases in viable cells to insoluble formazan crystals. The medium and any unconverted MTT was aspirated, 150 μL of DMSO was added to each well, and the plates were shaken on a plate shaker (Stuart Scientific 503) to ensure complete formazan solubilisation.
(§10) The intensity of absorbance is directly proportional to cell viability. A linear relationship exists between cell number and the amount of formazan and so the mean absorbance determined for each well of the same concentration can be used as a quantitative measure of viable cells compared to the controls. A graph of absorbance against drug concentration was plotted and the test compound concentration (GI50) causing 50% inhibition of control cell growth (absorbance increase from day 0) was calculated by interpolation.

[14] = test system: range of other cell lines (e.g., colon, melanoma); test: MTT assay, other cell lines; settings: other lines (e.g., colon, melanoma)
Description: as §3, §4, §5, §8, §9, §10

[15] = 168 h, 7-day MTT, single determinations
[16] = 7-day MTT, single determinations

SMILES	GI50 [8, 15] [µM]	GI50 [8, 16] [µM]	GI50 [9, 15] [µM]	GI50 [9, 16] [µM]	GI50 [10, 15] [µM]	GI50 [10, 16] [µM]	activity compared with TMZ, in words [12]	activity in words [13]	GI50 [11]	further results
COc1cccc(Cn2nnc3c(C(N)=O)ncn3c2=O)c1 [AA-003, 3-(3-Methoxybenzyl)-4-oxo-3,4-dihydroimidazo[5,1-d][1,2,3, 5]tetrazine-8-carboxamide]										GI50 [1]: 316 µM; GI50 [2]: 280 µM; GI50 ([2]; Homo sapiens, HCT-116, 168 h): 309 µM; GI50 [3]: 422 µM; GI50 [4]: 345 µM
CC[C@@H](c1ccccc1)n1nnc2c(C(N)=O)ncn2c1=O [BB-004, (S)-3-(-1-Phenylpropyl)-8-carbamoylimidazotetrazin-4-one]	84.3	72.8	63.1	99.4	52.4	65.8				GI50 [5]: 35.8 µM; GI50 [6]: 29.1 µM; GI50 [7]: 189 µM; GI50 [11, 15]: 48.4 µM; GI50 [11, 16]: 60 µM
CSCn1nnc2c(C(N)=O)ncn2c1=O [KK-001, 3-(Methylthio)methyl-8-carbamoylimidazotetrazin-4-one]	45	73.4	59	54	118	96.5	more active than TMZ			
COC(=O)Cn1nnc2c(C(N)=O)ncn2c1=O [LL-003, Methyl 2-(8-carbamoyl-4-oxoimidazo[5,1-d][1,2,3,5]tetrazin-3(4H)-yl)acetate]	9.6	11.6	25.4	33.7	21.3	29.7		surprising efficacy		GI50 [11, 15]: 34.8 µM; GI50 [11, 16]: 33.5 µM
CS(=O)(=O)CCn1nnc2c(C(N)=O)ncn2c1=O [UU-001, 3-(2-Methanesulfonyl-ethyl)-4-oxo-3,4-dihydro-imidazo[5,1-d][1,2,3,5]tetrazine-8-carboxylic acid amide]								surprising efficacy		activity in words [14]: surprising efficacy; GI50 [10]: 92.4 µM and 154 µM
CS(=O)(=O)Cn1nnc2c(C(N)=O)ncn2c1=O [UU-002, 3-Methanesulfonylmethyl-4-oxo-3,4-dihydro-imidazo[5,1-d][1,2,3,5]tetrazine-8-carboxylic acid amide]								surprising efficacy	14.5 µM and 13.7 µM and 26.6 µM	activity in words [14]: surprising efficacy
NC(=O)c1ncn2c(=O)n(CNC(=O)OCC3c4ccccc4-c4ccccc43)nnc12 [WW-001, (8-Carbamoyl-4-oxo-imidazo[5,1-d][1,2,3,5]tetrazin-3-ylmethyl)-carbamic acid 9H-fluoren-9-ylmethyl ester]							more active than TMZ		71.2 µM and 56 µM	GI50 [8]: 35.8 µM and 60.1 µM; GI50 [9]: 50 µM and 62.5 µM; GI50 [10]: 64.8 µM and 67.8 µM
CCC(Cn1nnc2c(C(N)=O)ncn2c1=O)=NOC [XX-001, 3-(2-Methoxyimino-butyl)-4-oxo-3,4-dihydro-imidazo[5,1-d][1,2,3,5]tetrazine-8-carboxylic acid amide]							more active than TMZ		47.2 µM and 47.9 µM	GI50 [8]: 18.5 µM and 10.6 µM; activity compared with TMZ, in words ([8]; MGMT− glioma cell line U373V): enhanced activity
